The target of assay [1] is T1, collagenase of the human monocytic stock U937 (Homo sapiens, UniProt P03956).
T1 construct: the collagenase of the human monocytic stock U937; endogenous in cells; host or cells: U937 human monocytic cell line
T1 sequence (P03956 100-469): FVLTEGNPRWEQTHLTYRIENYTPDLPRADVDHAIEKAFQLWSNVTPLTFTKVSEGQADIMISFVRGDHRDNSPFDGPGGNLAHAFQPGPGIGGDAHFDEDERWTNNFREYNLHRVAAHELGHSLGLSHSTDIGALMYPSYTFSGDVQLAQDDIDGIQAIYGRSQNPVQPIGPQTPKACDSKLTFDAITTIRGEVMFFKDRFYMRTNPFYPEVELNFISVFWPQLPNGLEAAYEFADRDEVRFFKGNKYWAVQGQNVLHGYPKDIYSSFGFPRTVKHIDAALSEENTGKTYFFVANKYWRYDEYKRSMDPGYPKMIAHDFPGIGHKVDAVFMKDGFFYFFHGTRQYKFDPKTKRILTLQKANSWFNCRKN
Put plainly: Activity on collagenase. The assay is classed as biochemical. The following applies: radiomarked collagen, 27° C., 16 hours; read-out: C150 (nM) collagenase. The procedure: The collagenase was incubated at 27° C. for 16 hours with radiomarked collagen, and its activity was determined by the release of soluble peptides produced by the enzymatic breakdown of the collagen. The inhibiting concentration C150 for each compound was determined by measurement of the activity of the enzyme in the presence of the inhibitor at a concentration ranging between 10^−7 and 10^−12 M (the inhibitor is dissolved at a concentration of 10^−2 M in DMSO, then diluted successively by tenths in the buffer: Tris, HCl 150 mM, pH 7.5; NaCl 0.15 M; CaCl2 10 mM).

Assay [2] concerns the target 92 kDa gelatinase of human origin (Homo sapiens, UniProt P14780). Nature of the assay: Activity on gelatinase, radiomarked gelatin. Particulars: for IC50: test performed with radiomarked gelatin, read-out: C150 (nM) gelatinase 92 kDa*; for gelatinase 92 kDa* (in %): radiomarked gelatin, concentration not given. The assay is classed as biochemical. The procedure: The anti-gelatinase activity of the compounds according to the invention also was determined on 92 kDa or 72 kDa gelatinase of human origin, in accordance with the operating mode described by Harris, E. D., Krane, S. M.; (Biochem. Biophys. Acta, 258, 566-576, 1972).
The gelatinase was incubated at 37° C. for 16 hours with radiomarked gelatin, and its activity was determined by the release of the soluble peptides produced by the enzymatic breakdown of the gelatin. The inhibiting concentration C150 for each compound was determined by measurement of the activity of the enzyme in the presence of the inhibitor at a concentration ranging between 10^−7 and 10^−12 M (the inhibitor is dissolved in the same manner as for collagenase).

Assay [3] relates to release of TNF from the peritoneal macrophages of mice stimulated by LPS. Nature of the assay: Inhibition of the production of TNF in vitro. Particulars: mouse peritoneal macrophages, LPS 100 ng/ml, read-out: C150 (μM) TNF. In kind it is cell-based. How it is done: The capacity of the compounds according to this invention to inhibit the release of TNF was determined from the peritoneal macrophages of mice stimulated by LPS (Lang, F., Robert, […], Petit, J. Y., J. Pharmacol. Exp. Ther., 275, 171-176, 1995). After an adhesion phase of 2 hours, the cells were treated for 1 hour with the compound to be tested at concentrations ranging between 10^-6 to 10^-9 M (the inhibitor is dissolved in DMSO at 10^-2 M, then at 5.10^-3 M in RPMI 1640 with 5% SVF, then diluted successively by tenths in the same medium), then stimulated by the addition of LPS (100 ng/ml in final concentration). Three hours later, the biological activity of the TNF in the supernatants was determined by a cytotoxicity test using the murine stock L929 in accordance with the operating procedure described by Band, G., Lin, […]., Evans, C. H. (Bioch. Biophys. Acta, 1134, 309-318, 1982). The pg/ml concentration of the TNF of the samples was determined from a murine αTNF standard curve, thus making it possible to define the inhibiting concentration […] of the compounds studied.

For assay [4], the target named is T2, 72 kDa gelatinase of human origin (Homo sapiens, UniProt P08253).
T2 sequence (P08253 110-660): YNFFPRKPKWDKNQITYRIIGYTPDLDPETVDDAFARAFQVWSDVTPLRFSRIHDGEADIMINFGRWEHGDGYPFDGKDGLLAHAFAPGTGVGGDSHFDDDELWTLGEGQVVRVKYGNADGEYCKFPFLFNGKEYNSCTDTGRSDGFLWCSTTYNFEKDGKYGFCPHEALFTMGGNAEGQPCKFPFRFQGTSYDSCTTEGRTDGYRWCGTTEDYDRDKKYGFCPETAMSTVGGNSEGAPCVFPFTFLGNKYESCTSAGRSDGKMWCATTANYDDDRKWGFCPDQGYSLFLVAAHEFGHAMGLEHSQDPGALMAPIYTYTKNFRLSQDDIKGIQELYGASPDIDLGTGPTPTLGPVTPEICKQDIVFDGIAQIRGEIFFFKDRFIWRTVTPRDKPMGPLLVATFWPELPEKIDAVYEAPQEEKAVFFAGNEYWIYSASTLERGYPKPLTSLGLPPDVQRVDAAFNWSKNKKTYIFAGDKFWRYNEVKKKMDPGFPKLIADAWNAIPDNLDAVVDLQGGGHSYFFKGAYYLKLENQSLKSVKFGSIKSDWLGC
Put plainly: Activity on gelatinase, synthetic substrate. The assay is classed as biochemical. Particulars: performed on synthetic substrate; read-out: C150 (nM) gelatinase 72 kDa**. The procedure:
The anti-gelatinase activity of the compounds according to the invention was determined on 72 kDa gelatinase of human origin, in accordance with the operating mode described by Knight, C. G., Willenbrock, F., Murphy, G. (FEBS Letters, 296 (3), 263-266, 1992).
The gelatinase was incubated at 37° C. for 10 minutes, and its activity was determined by the increase in fluorescence of the product of Mca-Pro-Leu breakdown of the Mca-Pro-Leu-Gly-Leu-Dpa-Ala-Arg-NH2 synthetic substrate.
The inhibiting concentration C150 for each compound was determined by measurement of the activity of the enzyme in the presence of the inhibitor at a concentration ranging between 10^−7 and 10^−12 M (the inhibitor is dissolved at a concentration of 10^−2 M in DMSO, then diluted successively by tenths in DMSO to 10^−4 M, then in the buffer: Tris, HCl 50 mM+0.05% Brij 35; CaCl2 10 mM; NaCl 0.15 M).

Read-outs that look alike come from different tables or passages of the source.

Sequence of 92 kDa gelatinase of human origin (P14780 94-707): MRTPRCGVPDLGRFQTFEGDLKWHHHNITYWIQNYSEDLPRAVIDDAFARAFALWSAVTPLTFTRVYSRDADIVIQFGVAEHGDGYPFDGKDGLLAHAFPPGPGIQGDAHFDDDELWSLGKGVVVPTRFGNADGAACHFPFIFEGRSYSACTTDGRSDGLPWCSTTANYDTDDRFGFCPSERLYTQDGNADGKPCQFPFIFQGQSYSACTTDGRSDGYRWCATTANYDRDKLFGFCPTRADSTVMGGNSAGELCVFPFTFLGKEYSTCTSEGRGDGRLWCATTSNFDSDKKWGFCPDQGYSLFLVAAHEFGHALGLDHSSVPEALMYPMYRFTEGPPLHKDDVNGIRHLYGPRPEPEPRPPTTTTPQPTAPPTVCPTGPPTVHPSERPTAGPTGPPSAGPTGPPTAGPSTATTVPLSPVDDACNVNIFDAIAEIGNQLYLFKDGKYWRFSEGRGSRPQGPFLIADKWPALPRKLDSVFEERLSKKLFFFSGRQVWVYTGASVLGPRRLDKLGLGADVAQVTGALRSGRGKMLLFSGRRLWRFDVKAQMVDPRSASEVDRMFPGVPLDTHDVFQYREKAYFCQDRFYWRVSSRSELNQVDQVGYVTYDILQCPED

For `CC(C)C[C@@](O)(C(=O)N[C@@H](Cc1ccc(Cl)c(Cl)c1)C(=O)NCCN1CCOCC1)[C@H](C)C(=O)NO` [Example 35b], the IC50 in assay [1] was determined as 4 nM; in assay [2] it was 1.1 nM; in assay [3] (Peritoneal macrophage), 0.3 µM.
The like results for `CNC(=O)[C@H](Cc1ccc(OC)cc1)NC(=O)[C@](O)(CC(C)C)C(C)N(O)C=O` (mixture of isomers) [Example 38, N-2(S)-[1(N-hydroxy-N-formyl)ethyl]2(S)-hydroxy4-methylpentanoyl-o-methyl L-tyrosine methylamide] were, in that order, 130 nM, 17 nM and 3.2 µM.
In the case of `CSCCNC(=O)[C@H](Cc1ccc(Cl)c(Cl)c1)NC(=O)[C@](O)(CC(C)C)[C@H](C)C(=O)NO` [Example 21, N-2(S)[1(S)hydroxycarbamoyl-1 ethyl]-2(S) hydroxy-4-methylpentanoyl L-3,4-dichlorophenylalanine N-(2-methylthio-1-ethyl) amide], the IC50 in assay [1] was 5 nM; in assay [3] (Peritoneal macrophage), 0.4 µM. In addition, in assay [2], the “gelatinase 92 kDa* (in %)” value is 83%.
For the compound `C[C@H](C(=O)NO)[C@@](O)(CCCc1ccccc1)C(=O)N[C@@H](CC1CCCCC1)C(=O)NCCc1ccccc1` [Example 32, N-2-(S)[1(S)(hydroxycarbamoyl)ethyl]2(S) hydroxy 5-phenyl pentanoyl L-3-cyclohexylalanine 2 phenylethylamide], the IC50 in assay [2] is 1.9 nM; in assay [4] it was 0.8 nM; in assay [3] (Peritoneal macrophage) it was more than 1 µM.
As to `CC(C)C[C@@](O)(C(=O)N[C@@H](Cc1ccc(Cl)c(Cl)c1)C(=O)NCCOCCO)[C@H](C)C(=O)NO` [Example 19, N-2(S)[1(S)hydroxycarbamoyl-1 ethyl]-2 (S) hydroxy 4-methylpentanoyl L-3,4 dichlorophenylalanine N-hydroxyethyloxyethylamide], the IC50 in assay [1] stood at 7 nM; in assay [2] it was 0.001 nM; in assay [4] it was 0.7 nM; in assay [3] (Peritoneal macrophage), 0.5 µM.
Regarding `CNC(=O)[C@H](Cc1c[nH]c2ccccc12)NC(=O)[C@](O)(CC(C)C)[C@H](C)C(=O)NO` [Example 26, N-2-(S)[1(S) hydroxycarbamoyl-1 ethyl]-2(S)hydroxy-4-methylpentanoyl L-tryptophan N-methylamide], the IC50 came to 0.6 nM in assay [2] and 4.4 µM in assay [3] (Peritoneal macrophage).
Consider `CNC(=O)[C@H](Cc1ccc(Cl)c(Cl)c1)NC(=O)[C@@](O)(CS)CC(C)C` [Example 37], for which the results for the IC50 in assay [1], in assay [2] and in assay [3] (Peritoneal macrophage) were more than 1000 nM, 70 nM and 2 µM, respectively.
As for `CNC(=O)[C@H](Cc1ccc(Cl)c(Cl)c1)NC(=O)[C@](O)(CCCc1ccccc1)[C@H](C)C(=O)NO` [Example 33, N-2-(S)[1(S)(hydroxycarbamoyl)ethyl]2(S) hydroxy 5-phenylpentanoyl L-3,4-dichlorophenylalanine N-methylamide], the IC50 is 225 nM in assay [1], 0.01 nM in assay [4] and 0.58 µM in assay [3] (Peritoneal macrophage). In assay [2], the “gelatinase 92 kDa* (in %)” value is given as 86%.
As for `CNC(=O)[C@H](Cc1ccc(OC)cc1)NC(=O)[C@](O)(CC(C)C)[C@H](C)S` [Example 36, N-2(R)-[(1-thioethyl)] 2(R) hydroxy 4-methyl pentanoyl-o-methyl-L-tyrosine methylamide], the IC50 in assay [1] was 500 nM; in assay [2], 23 nM; in assay [3] (Peritoneal macrophage), 3 µM.
On to `COCCOCCNC(=O)[C@H](Cc1ccc(Cl)c(Cl)c1)NC(=O)[C@](O)(CC(C)C)[C@H](C)C(=O)NO` [Example 23, N-2(S) [1(S) hydroxycarbamoyl-1 ethyl]-2(S) hydroxy 4-methyl pentanoyl L-3,4-dichlorophenylalanine N-(2-(2-methoxyethoxy)1-ethyl)amide], for which the “gelatinase 92 kDa* (in %)” value in assay [2] worked out at 60%. Further, the figures for the IC50 in assay [4] and in assay [3] (Peritoneal macrophage) were 0.14 nM and 0.37 µM, respectively.
Consider `CNC(=O)[C@H](Cc1ccc(OC)cc1)NC(=O)[C@](O)(C(C)C)[C@H](C)C(=O)NO` [Example 7, N-2(S) [-1-(S) hydroxycarbamoyl 1(S)ethyl] 2(S) hydroxy-3 methyl butanoyl O-methyltyrosine N-methylamide], for which the IC50 in assay [1] amounted to 30 nM; in assay [2], 17 nM; in assay [4] it was 18 nM; in assay [3] (Peritoneal macrophage), 2 µM.
For the compound `CCC[C@H](C(=O)NO)[C@@](O)(CC(C)C)C(=O)N[C@@H](Cc1ccc(Cl)cc1)C(=O)NC` [Example 17, N-2(S) hydroxy 3(S) hydroxycarbamoyl 2(S) 1(2-methyl) propyl hexanoyl L-4-chlorophenylalanine N-methyl amide], the IC50 amounted to 1.6 nM in assay [2], 1.6 nM in assay [4] and 0.27 µM in assay [3] (Peritoneal macrophage).
Regarding “N-2(S)[1(S)-hydroxycarbamoyl-1 (S) ethyl]-2 (S)-hydroxy-4-methyl pentanoyl L-(3,4)-dichlorophenylalanine N-(2-(4-morpholino)1-ethyl) amide [Example 35a]”, the IC50 is 6 nM in assay [1], 0.38 nM in assay [2] and 0.86 µM in assay [3].
Turning to `CNC(=O)[C@H](Cc1ccc(Cl)cc1Cl)NC(=O)[C@](O)(CC(C)C)[C@H](C)C(=O)NO` [Example 20, N-2(S)[1(S)hydroxycarbamoyl-1 ethyl]-2 (S) hydroxy 4-methylpentanoyl L-2,4-dichlorophenylalanine N-methylamide], the IC50 in assay [1] is 3.7 nM; in assay [2] it was 0.2 nM; in assay [4] it was 1.6 nM; in assay [3] (Peritoneal macrophage), 1 µM.
Consider `CNC(=O)[C@H](Cc1cccc(Cl)c1)NC(=O)[C@](O)(CC(C)C)[C@H](C)C(=O)NO` [Example 22, N-2(S)-[1(S) hydroxycarbamoyl-1 ethyl]-2(S) hydroxy-4-methylpentanoyl L-3-chlorophenylalanine N-methylamide], for which the IC50 in assay [1] is 2.4 nM; in assay [3] (Peritoneal macrophage) it was 0.13 µM.

For the origin of these results see patent US6344457B1, “Amino acid derivatives inhibiting extracellular matrix metalloproteinase and TNF alpha release” (Chiesi Farmaceutici S.p.A., priority 1997, dated 2002).
